Broadly, the IC90 is the concentration at which the effect reaches the 90% level.

This assay has as its system Acinetobacter baumannii ATCC17961. The experiment in a line: Antimicrobial susceptibility testing: 90% growth inhibitory concentration (IC90) determination in Iso-Sensitest broth, OD600 growth. It counts as cell-based. Conditions: Acinetobacter baumannii, ATCC17961, 16 h. The essentials: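 Growth inhibition is calculated during the logarithmic phase from OD600 readings taken every 20 minutes across 16 h at 35±2° C. Bacteria at ~5×10^(5) CFU/ml face twofold dilution series (e.g. 50 to 0.097 μM final).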

Where [1] appears, read: strain ATCC 17961, OD600 growth over 16 h, read-out: A. baumannii ATCC 17961 IC90.
[2] abbreviates: read-out: A. baumannii ATCC 17961 IC90 (uM), strain ATCC 17961, OD600 growth over 16 h.

Where a name gives a salt, the structure may show the parent alone. Read-outs that look alike come from different tables or passages of the source.

In the case of `CCc1cc(Nc2nccn3c(-c4cn(CC#N)nc4C(F)(F)F)cnc23)ccc1C(=O)NCC1CCN(CC2CNC2)CC1` [Example 828, N-((1-(azetidin-3-ylmethyl)piperidin-4-yl)methyl)-4-((3-(1-(cyanomethyl)-3-(trifluoromethyl)-1H-pyrazol-4-yl)imidazo[1,2-α]pyrazin-8-yl)amino)-2-ethylbenzamide 2,2,2-trifluoroacetate], the IC90 under setting [1] came to 0.35 µM.

As for `N[C@@H]1CC[C@H](C(=O)N2CCN(C(=O)c3ccc(Nc4nccn5c(-c6cn(CC7CC7)nc6C(F)(F)F)cnc45)cc3F)CC2)C1` [Example 808, (4-((1S,3R)-3-aminocyclo-pentane-1-carbonyl)piperazin-1-yl)(4-((3-(1-(cyclopropyl-methyl)-3-(trifluoromethyl)-1H-pyrazol-4-yl)imidazo[1,2-a]pyrazin-8-yl)amino)-2-fluorophenyl) methanone hydrochloride], the IC90 under setting [1] turned out to be 0.26 µM.

Take `NCCCNC(=O)N1CCN(C(=O)c2ccc(Nc3nccn4c(-c5c[nH]nc5C(F)(F)F)cnc34)cc2Cl)CC1` [Example 390, N-(3-aminopropyl)-4-[2-chloro-4-[[3-[3-(trifluoromethyl)-1H-pyrazol-4-yl]imidazo[1,2-a]pyrazin-8-yl]amino]benzoyl]piperazine-1-carboxamide formate]: under setting [2], the IC90 amounted to 0.177 µM.

Turning to `CCc1cc(Nc2nccn3c(-c4cn(CC(F)F)nc4C(F)(F)F)cnc23)ccc1C(=O)NC1CCCNC1` (stereo not drawn) [Example 563, 4-((3-(1-(2,2-difluoroethyl)-3-(trifluoromethyl)-1H-pyrazol-4-yl)imidazo[1,2-a]pyrazin-8-yl)amino)-2-ethyl-N-(piperidin-3-yl)benzamide formate], the IC90 under setting [2] was 0.575 µM.

For the compound `CCc1cc(Nc2nccn3c(-c4cn(CC(F)F)nc4C(F)(F)F)cnc23)ccc1C(=O)NCCNC(=O)[C@@H]1CCCN1` [Example 35, (2S)-N-[2-[[4-[[3-[1-(2,2-difluoroethyl)-3-(trifluoromethyl)pyrazol-4-yl]imidazo[1,2-a]pyrazin-8-yl]amino]-2-ethylbenzoyl)amino]ethyl]pyrrolidine-2-carboxamide], the IC90 under setting [1] was 0.185 µM.

With `CCc1cc(Nc2nccn3c(-c4cn(CC#N)nc4C(F)(F)F)cnc23)ccc1C(=O)NCC(=O)N1CC[C@H](N)C1` [Example 681, N-[2-[(3S)-3-aminopyrrolidin-1-yl]-2-oxo-ethyl]-4-[[3-[1-(cyanomethyl)-3-(trifluoromethyl)pyrazol-4-yl]imidazo[1,2-a]pyrazin-8-yl]amino]-2-ethyl-benzamide formate], the IC90 under setting [2] worked out at 0.327 µM.

Turning to `CNC(=O)c1ccc(Nc2nccn3c(-c4cn(CC(N)=O)nc4C(F)(F)F)cnc23)cc1Cl` [Example 357, 4-[[3-[1-(2-amino-2-oxoethyl)-3-(trifluoromethyl)pyrazol-4-yl]imidazo[1,2-a]pyrazin-8-yl]amino]-2-chloro-N-methylbenzamide], the IC90 under setting [1] was determined as 1.59 µM.

As to `CCc1cc(Nc2nccn3c(-c4cn(C5CCC5)nc4C(F)(F)F)cnc23)ccc1C(=O)NCCOCCN1CCOCC1` [Example 661, 4-((3-(1-cyclobutyl-3-(trifluoromethyl)-1H-pyrazol-4-yl)imidazo[1,2-a]pyrazin-8-yl)amino)-2-ethyl-N-(2-(2-morpholinoethoxy)ethyl) benzamide formate], under setting [1], the IC90 was found to be 0.279 µM.

Regarding `CCc1cc(Nc2nccn3c(-c4cn(CCF)nc4C(F)F)cnc23)ccc1C(=O)N1CCN(C(=O)[C@@H]2C[C@@H](O)CN2)CC1` [Example 795, (4-(4-((3-(3-(difluoromethyl)-1-(2-fluoroethyl)-1H-pyrazol-4-yl)imidazo[1,2-a]pyrazin-8-yl)amino)-2-ethylbenzoyl)piperazin-1-yl)((2S,4R)-4-hydroxypyrrolidin-2-yl)methanone], the IC90 under setting [1] was 2.23 µM.

`C#CCn1cc(-c2cnc3c(Nc4ccc(C(=O)N5CCN(C(=O)[C@@H](C)N)CC5)c(CC)c4)nccn23)c(C(F)F)n1` [Example 747, (R)-2-amino-1-(4-(4-((3-(3-(difluoromethyl)-1-(prop-2-yn-1-yl)-1H-pyrazol-4-yl)imidazo[1,2-a]pyrazin-8-yl)amino)-2-ethylbenzoyl)piperazin-1-yl)propan-1-one]: the IC90 under setting [1] was found to be 0.598 µM.

Regarding `CCc1cc(Nc2nccn3c(-c4cn(CCF)nc4C(F)(F)F)cnc23)ccc1C(=O)N[C@H](C)CN` [Example 110, N-[(2R)-1-aminopropan-2-yl]-2-ethyl-4-[[3-[1-(2-fluoroethyl)-3-(trifluoromethyl)pyrazol-4-yl]imidazo[1,2-a]pyrazin-8-yl]amino]benzamide], the IC90 under setting [1] turned out to be 0.506 µM.

`CCc1cc(Nc2nccn3c(-c4cn(CC(O)C(F)(F)F)nc4C(F)(F)F)cnc23)ccc1C(=O)NCCOCCN` (stereo not drawn) [Example 644, N-(2-(2-aminoethoxy)ethyl)-2-ethyl-4-((3-(1-(3,3,3-trifluoro-2-hydroxypropyl)-3-(trifluoromethyl)-1H-pyrazol-4-yl)imidazo [1,2-a]pyrazin-8-yl)amino) benzamide]: the IC90 under setting [1] was determined as 0.24 µM.

With `CCc1cc(Nc2nccn3c(-c4c[nH]nc4C(F)(F)F)cnc23)ccc1C(=O)NCCNC(=O)[C@H]1C[C@@H](N)C1` [Example 740, N-(2-((1s,3s)-3-aminocyclobutane-1-carboxamido)ethyl)-2-ethyl-4-((3-(3-(trifluoromethyl)-1H-pyrazol-4-yl)imidazo[1,2-a]pyrazin-8-yl)amino)benzamide], the IC90 under setting [1] is 0.529 µM.

As to `CCc1cc(Nc2nccn3c(-c4cn(CC#N)nc4C(F)(F)F)cnc23)ccc1C(=O)N[C@H](C)C(=O)N1CCNCC1` [Example 678, 4-[[3-[1-(cyanomethyl)-3-(trifluoromethyl)pyrazol-4-yl]imidazo[1,2-a]pyrazin-8-yl]amino]-2-ethyl-N-[(1R)-1-methyl-2-oxo-2-piperazin-1-yl-ethyl]benzamide formate], the IC90 under setting [2] came out at 0.321 µM.

As for `C#CCn1cc(-c2cnc3c(Nc4ccc(C(=O)NCCOC[C@@H](C)N)c(CC)c4)nccn23)c(C(F)(F)F)n1` [Example 149, N-[2-[(2R)-2-aminopropoxy]ethyl]-2-ethyl-4-[[3-[1-prop-2-ynyl-3-(trifluoromethyl)pyrazol-4-yl]imidazo[1,2-a]pyrazin-8-yl]amino]benzamide], the IC90 under setting [1] turned out to be 0.102 µM.

Take `C#CCn1cc(-c2cnc3c(Nc4cc(C)c(C(=O)N[C@H](C)CN)c(F)c4)nccn23)c(C(F)(F)F)n1` [Example 662, (R)-N-(1-aminopropan-2-yl)-2-fluoro-6-methyl-4-((3-(1-(prop-2-yn-1-yl)-3-(trifluoromethyl)-1H-pyrazol-4-yl)imidazo [1,2-a]pyrazin-8-yl)amino)benzamide]: under setting [1], the IC90 was found to be 0.284 µM.

As for `N[C@@H]1CC[C@@H](NC(=O)c2ccc(Nc3nccn4c(-c5c[nH]nc5C(F)(F)F)cnc34)cc2Cl)C1` (racemic) [Example 407, 2-chloro-N-[rac-(1R,3R)-3-aminocyclopentyl]-4-[[3-[3-(trifluoromethyl)-1H-pyrazol-4-yl]imidazo[1,2-a]pyrazin-8-yl]amino]benzamide], the IC90 under setting [1] came to 2.96 µM.

For `CCc1cc(Nc2nccn3c(-c4cn(CC(F)F)nc4C(F)F)cnc23)ccc1C(=O)N1CCN(C(=O)[C@H](C)N)CC1` [Example 775, (S)-2-amino-1-(4-(4-((3-(1-(2,2-difluoroethyl)-3-(difluoromethyl)-1H-pyrazol-4-yl)imidazo[1,2-a]pyrazin-8-yl)amino)-2-ethylbenzoyl)piperazin-1-yl)propan-1-one], under setting [1], the IC90 turned out to be 0.988 µM.

(Values after patent publication US20230203043A1, “NOVEL IMIDAZOPYRAZINE DERIVATIVES” (Hoffmann-La Roche Inc., priority 2020, published 2023).)
